Legend:
[1] = Cell viability (MTT colourimetric assay) in the IDO1 cell-based assay; conditions: mouse, same experiment as cellular IDO1 assay, read-out: Cell cytotoxicity IC50
Protocol: The viability of the cells in each well in the same experiment was determined using the 3-(4,5-dimethylthiazolyl-2-yl)-2,5-diphenyltetrazolium bromide ([…]) colourimetric assay. After the removal of the supernatant for determination of IDO1 inhibition, the cells were incubated with MU (500 μg/mL) until crystal formation was observed. Plates were centrifuged for 15 min at 2500 g, and then all the supernatant in then wells was discarded. DMSO (100 μL/well) was added to dissolve the crystals and then the absorbance in each well was measured at 570 nm. Cell viability in each well was expressed as a percentage of untreated controls. Triplicate cultures were used for all experiments unless stated otherwise.

[2] = Cell viability (MTT colourimetric assay) in the TDO cell-based assay; conditions: mouse, same experiment as cellular TDO assay, read-out: Cell cytotoxicity IC50
Protocol: The viability of the cells in each well in the same experiment was determined using the 3-(4,5-dimethylthiazolyl-2-yl)-2,5-diphenyltetrazolium bromide ([…]) colourimetric assay.

[3] = biological target: Recombinant human IDO1 (rhIDO1) (Homo sapiens (Human), UniProt P14902); assay: Enzymatic assay for IDO1 activity; type: biochemical; conditions: rhIDO1 9 nM, 80 μM TRP, 37° C. 30 min
Recombinant human IDO1 (rhIDO1), sequence (P14902 whole entry): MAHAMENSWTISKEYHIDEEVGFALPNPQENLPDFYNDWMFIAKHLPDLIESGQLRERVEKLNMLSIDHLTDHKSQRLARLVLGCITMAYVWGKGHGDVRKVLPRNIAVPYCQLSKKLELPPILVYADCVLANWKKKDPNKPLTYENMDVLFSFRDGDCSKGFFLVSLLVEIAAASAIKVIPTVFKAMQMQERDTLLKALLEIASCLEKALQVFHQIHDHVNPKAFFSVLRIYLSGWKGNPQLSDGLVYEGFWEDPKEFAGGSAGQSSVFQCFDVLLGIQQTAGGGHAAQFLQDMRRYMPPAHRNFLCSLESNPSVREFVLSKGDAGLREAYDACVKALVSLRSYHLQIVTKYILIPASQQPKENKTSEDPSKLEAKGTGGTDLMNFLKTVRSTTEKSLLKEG
Protocol: Recombinant human IDO1 (rhIDO1) was expressed and purified from cultures of EC538 strain of E. coli transformed with pREP4 and pQE9-IDO plasmid. Reaction mixes were set up in 384-well microplates containing 50 mM phosphate buffer, 10 mM ascorbic, 10 μM methylene blue, 100 μg/mL catalase, 80 μM TRP, 0.01% Tween 20 (v/v) mixed with rhIDO1 (15 μL) at a final concentration of 9 nM in a total volume of 30 μL assay medium. The plates were incubated at 37° C. for 30 min, and the enzymatic reaction was terminated by adding piperidine (200 mM) and heated at 65° C. for 20 min. Fluorescence intensity was read at λex 400 nm and λem 500 nm. Test compounds were dissolved in 100% DMSO and pre-diluted in assay medium prior to adding rhIDO1. IDO1 inhibition (%) was calculated as
[formula] All experiments were carried out in triplicates, and statistical Analyses were conducted in Prism v5 (Graphpad Software, Inc., La Jolla, Calif., USA). Cell-Based Assay for IDO1 Inhibition

[4] = biological target: full length human TDO (GL261 cells) (Homo sapiens (Human), UniProt P48775); assay: Cell-based assay for TDO inhibition; conditions: GL261 cells over-expressing human TDO, 24 h; read-out: Cellular IC50
full length human TDO (GL261 cells), sequence (P48775 whole entry): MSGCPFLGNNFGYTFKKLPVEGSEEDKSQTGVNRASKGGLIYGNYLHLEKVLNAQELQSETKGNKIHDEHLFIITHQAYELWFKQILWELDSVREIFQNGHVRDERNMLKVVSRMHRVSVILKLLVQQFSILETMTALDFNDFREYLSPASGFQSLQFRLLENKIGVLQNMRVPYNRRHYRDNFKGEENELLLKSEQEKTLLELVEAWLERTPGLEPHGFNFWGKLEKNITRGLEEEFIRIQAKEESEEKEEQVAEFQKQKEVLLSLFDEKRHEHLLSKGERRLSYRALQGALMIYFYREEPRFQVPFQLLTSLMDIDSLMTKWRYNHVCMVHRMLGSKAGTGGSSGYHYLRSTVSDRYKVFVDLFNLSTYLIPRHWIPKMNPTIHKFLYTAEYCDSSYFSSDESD
Protocol: Culture supernatant from each well was then transferred into a fresh, flat-bottomed 96-well plate, and kynurenine content was determined as described above for the IDO1 assay, and the concentration that inhibited 50% cellular enzyme activity was calculated.

IC50 [3] [µM]	SMILES	IC50 [1] [µM]	IC50 [2] [µM]	IC50 [4] [µM]
	Cc1nc2onc(N)c2c(C)c1Cl [Compound 1, 5-Chloro-4,6-dimethylisoxazolo[5,4-b]pyridin-3-amine]	> 100	> 100	
10 to 100	Cc1nc2onc(NC(=O)Nc3ccc(C#N)cc3)c2c(C)c1Cl [Compound 3, 1-(5-chloro-4,6-dimethylisoxazolo[5,4-b]pyridin-3-yl)-3-(4-cyanophenyl)urea]	> 100		
> 100	Cc1nc2onc(NC(=O)Nc3ccccc3Cl)c2c(C)c1Cl [Compound 6, 1-(5-Chloro-4,6-dimethylisoxazolo[5,4-b]pyridin-3-yl)-3-(2-chlorophenyl)urea]	> 100		
> 100	Cc1nc2onc(NC(=O)Nc3cccc(Cl)c3)c2c(C)c1Cl [Compound 7, 1-(5-Chloro-4,6-dimethylisoxazolo[5,4-b]pyridin-3-yl)-3-(3-chlorophenyl)urea]	> 100		
> 100	Cc1nc2onc(NC(=O)Nc3ccc(Cl)cc3)c2c(C)c1Cl [Compound 8, 1-(5-Chloro-4,6-dimethylisoxazolo[5,4-b]pyridin-3-yl)-3-(4-chlorophenyl)urea]	> 100		
> 100	Cc1nc2onc(NC(=O)Nc3ccccc3OC(F)(F)F)c2c(C)c1Cl [Compound 9, 1-(5-Chloro-4,6-dimethylisoxazolo[5,4-b]pyridin-3-yl)-3-(2-(trifluoromethoxy)phenyl)urea]	> 100		
> 100	Cc1nc2onc(NC(=O)Nc3cccc(OC(F)(F)F)c3)c2c(C)c1Cl [Compound 10, 1-(5-Chloro-4,6-dimethylisoxazolo[5,4-b]pyridin-3-yl)-3-(3-(trifluoromethoxy)phenyl)urea]	> 100		
10 to 100	COc1ccccc1NC(=O)Nc1noc2nc(C)c(Cl)c(C)c12 [Compound 11, 1-(5-Chloro-4,6-dimethylisoxazolo[5,4-b]pyridin-3-yl)-3-(2-methoxyphenyl)urea]	> 100		
> 100	COc1cccc(NC(=O)Nc2noc3nc(C)c(Cl)c(C)c23)c1 [Compound 12, 1-(5-Chloro-4,6-dimethylisoxazolo[5,4-b]pyridin-3-yl)-3-(3-methoxyphenyl)urea]	> 100		
> 100	COc1ccc(NC(=O)Nc2noc3nc(C)c(Cl)c(C)c23)cc1 [Compound 13, 1-(5-Chloro-4,6-dimethylisoxazolo[5,4-b]pyridin-3-yl)-3-(4-methoxyphenyl)urea]	> 100		
> 100	Cc1nc2onc(NC(=O)Nc3ccccc3C(F)(F)F)c2c(C)c1Cl [Compound 14, 1-(5-Chloro-4,6-dimethylisoxazolo[5,4-b]pyridin-3-yl)-3-(2-(trifluoromethyl)phenyl)urea]	> 100		
> 100	Cc1nc2onc(NC(=O)Nc3cccc(C(F)(F)F)c3)c2c(C)c1Cl [Compound 15, 1-(5-Chloro-4,6-dimethylisoxazolo[5,4-b]pyridin-3-yl)-3-(3-(trifluoromethyl)phenyl)urea]	> 100	> 100	10 to 100
> 100	Cc1nc2onc(NC(=O)Nc3ccc(C(F)(F)F)cc3)c2c(C)c1Cl [Compound 16, 1-(5-Chloro-4,6-dimethylisoxazolo[5,4-b]pyridin-3-yl)-3-(4-(trifluoromethyl)phenyl)urea]	> 100		
10 to 100	Cc1nc2onc(NC(=O)Nc3ccccc3)c2c(C)c1Cl [Compound 17, 1-(5-Chloro-4,6-dimethylisoxazolo[5,4-b]pyridin-3-yl)-3-phenylurea]	> 100		
> 100	Cc1nc2onc(NC(=O)Cc3ccccc3)c2c(C)c1Cl [Compound 18, N-(5-Chloro-4,6-dimethylisoxazolo[5,4-b]pyridin-3-yl)-2-phenylacetamide]			
> 100	Cc1nc2onc(NC(=O)Cc3ccc(OC(F)(F)F)cc3)c2c(C)c1Cl [Compound 19, N-(5-Chloro-4,6-dimethylisoxazolo[5,4-b]pyridin-3-yl)-2-(4-(trifluoromethoxy)phenyl)acetamide]	> 100		
> 100	CC(=O)Nc1noc2nc(C)c(Cl)c(C)c12 [Compound 20, N-(5-Chloro-4,6-dimethylisoxazolo[5,4-b]pyridin-3-yl)acetamide]	> 100		

SMILES	IC50 [3] [µM]	IC50 [1] [µM]	IC50 [2] [µM]	IC50 [4] [µM]
Cc1nc2onc(NC(=O)Nc3ccc(OC(F)(F)F)cc3)c2c(C)c1Cl [Compound 2, 1-(5-Chloro-4,6-dimethylisoxazolo[5,4-b]pyridin-3-yl)-3-(4-(trifluoromethoxy)phenyl)urea]	> 100	> 100		
Cc1nc2onc(NC(=O)Oc3ccccc3)c2c(C)c1Cl [Compound 4, Phenyl (5-chloro-4,6-dimethylisoxazolo[5,4-b]pyridin-3-yl)carbamate]	1 to 10	> 100	> 100	10 to 100
